Source: patent publication US10800804B2, “Hybrid galactoside inhibitor of galectins” (GALECTO BIOTECH AB, priority 2014, dated 2020)

Experiments:
[1] = molecular target: Galectin-3 (Homo sapiens (Human), UniProt P17931); assay: Fluorescence anisotropy assay with high-affinity probe (SY), 50 nM galectin-3, 100 nM albumin; assay type: binding
Protocol: (§1) 100 nM albumin was included as a carrier to prevent protein loss at such low concentration of galectin.

[2] = molecular target: Galectin-1 (Homo sapiens (Human), UniProt P09382); assay: Fluorescence anisotropy assay, compound as inhibitor of galectin / fluorescein tagged saccharide probe interaction; assay type: binding
Galectin-1, sequence (P09382 whole entry): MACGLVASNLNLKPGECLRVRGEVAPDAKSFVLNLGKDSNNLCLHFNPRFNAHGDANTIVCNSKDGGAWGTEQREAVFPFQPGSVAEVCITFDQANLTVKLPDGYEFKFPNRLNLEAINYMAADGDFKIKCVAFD
Protocol: as §1

[3] = molecular target: galectins; details: all galectins; reviewed by Leffler, 2001 and Leffler et al., 2004; cited from earlier work

Galectin-3, sequence (P17931 whole entry): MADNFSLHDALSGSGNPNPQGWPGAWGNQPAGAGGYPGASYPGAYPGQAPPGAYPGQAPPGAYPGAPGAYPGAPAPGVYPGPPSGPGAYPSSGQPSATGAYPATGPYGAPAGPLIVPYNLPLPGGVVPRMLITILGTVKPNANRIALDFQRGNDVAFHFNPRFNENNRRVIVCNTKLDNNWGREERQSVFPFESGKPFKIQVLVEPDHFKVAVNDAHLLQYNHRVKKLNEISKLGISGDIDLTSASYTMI

| Kd ([1]; Experimental Section 1) | Kd ([2]; Experimental Section 1) | Kd ([1]; Experimental Section 2) | Kd ([2]; Experimental Section 2) | SMILES | Kd [3] |
| --- | --- | --- | --- | --- | --- |
| 2 nM | 480 nM |  |  | O=c1oc2ccc(F)c(F)c2cc1COC1C(O)[C@@H](CO)OC(S[C@@H]2OC(CO)[C@H](O)[C@H](n3cc(-c4cc(F)c(F)c(F)c4)nn3)C2O)[C@@H]1O (stereo partly drawn) [Example S8b, 3′-Deoxy-3-O-[(5,6-difluoro-2-oxo-3-chromenyl)methyl]-3′-[4-(3,4,5-trifluorophenyl)-1H-1,2,3-triazol-1-yl]-1,1′-sulfanediyl-di-β-D-galactopyranoside] |  |
| 3 nM | 66 nM |  |  | OCC1O[C@@H](SC2O[C@H](CO)C(O)C(n3cc(-c4ccccc4)nn3)[C@H]2O)C(O)[C@@H](n2cc(-c3cc(F)c(F)c(F)c3)nn2)[C@H]1O (stereo partly drawn) [Example S21, 3,3′-Dideoxy-3-[4-(3,4,5-trifluorophenyl)-1H-1,2,3-triazol-1-yl]-3′-[4-phenyl-1H-1,2,3-triazol-1-yl]-1,1′-sulfanediyl-di-β-D-galactopyranoside] |  |
| 28 nM | 320 nM |  |  | O=c1oc2ccc(F)c(F)c2cc1COC1C(O)[C@@H](CO)OC(S[C@@H]2OC(CO)[C@H](O)[C@H](n3cc(-c4cccc(F)c4)nn3)C2O)[C@@H]1O (stereo partly drawn) [Example S8a, 3′-Deoxy-3-O-[(5,6-difluoro-2-oxo-3-chromenyl)methyl]-3′-[4-(3-fluorophenyl)-1H-1,2,3-triazol-1-yl]-1,1′-sulfanediyl-di-β-D-galactopyranoside] |  |
| 7 nM | 90 nM |  |  | COc1c(F)c(F)c(C(=O)NC2C(O)C(CO)OC(SC3OC(CO)C(O)C(n4cc(-c5cccc(F)c5)nn4)C3O)C2O)c(F)c1F [Example S16, 3,3′-Dideoxy-3′-[4-(3-fluorophenyl)-1H-1,2,3-triazol-1-yl]-3-(4-methoxy-2,3,5,6-tetrafluoro-benzamido)-1′-sulfanediyl-di-β-D-galactopyranoside] |  |
|  |  | 2 nM | 110 nM | OCC1O[C@@H](SC2O[C@H](CO)C(O)C(n3cc(-c4cc(F)cc(F)c4)nn3)[C@H]2O)C(O)[C@@H](n2cc(-c3cc(F)cc(F)c3)nn2)[C@H]1O (stereo partly drawn) [Example 3c, 3,3′-bisdeoxy-3,3′-bis-[4-(3,5-difluorophenyl)-1H-1,2,3-triazol-1-yl]-1,1′-sulfanediyldi-β-D-galactopyranoside] |  |
| 1 nM | 77 nM |  |  | CCCCNC(=O)c1cn(C2C(O)[C@@H](CO)OC(S[C@@H]3OC(CO)[C@H](O)[C@H](n4cc(-c5cc(F)c(F)c(F)c5)nn4)C3O)[C@@H]2O)nn1 (stereo partly drawn) [Example S11, 3-{4-[(Butylamino)carbonyl]-1H-1,2,3-triazol-1-yl}-3,3′-dideoxy-3′-[4-(3,4,5-trifluorophenyl)-1H-1,2,3-triazol-1-yl]-1,1′-sulfanediyl-di-β-D-galactopyranoside] |  |
| 72 nM | 1200 nM |  |  | CCCCNC(=O)c1cn([C@@H]2C(O)[C@H](SC3O[C@H](CO)C(O)C(OCc4cc5c(F)c(F)ccc5oc4=O)[C@H]3O)OC(CO)[C@@H]2O)nn1 (stereo partly drawn) [Example S8c, 3′-{4-[(Butylamino)carbonyl]-1H-1,2,3-triazol-1-yl}-3′deoxy-3-O-[(5,6-difluoro-2-oxo-3-chromenyl)methyl]-1,1′-sulfanediyl-di-β-D-galactopyranoside] |  |

The next lines start with the molecule.

| SMILES | Kd ([1]; Experimental Section 1) | Kd ([2]; Experimental Section 1) | Kd ([1]; Experimental Section 2) | Kd ([2]; Experimental Section 2) | Kd [3] |
| --- | --- | --- | --- | --- | --- |
| OCC1O[C@@H](SC2O[C@H](CO)C(O)C(n3cc(-c4cc(F)c(F)c(F)c4)nn3)[C@H]2O)C(O)[C@@H](n2cc(-c3cc(F)c(F)c(F)c3)nn2)[C@H]1O (stereo partly drawn) [Example 3b, 3,3′-bisdeoxy-3,3′-bis-[4-(3,4,5-trifluorophenyl)-1H-1,2,3-triazol-1-yl]-1,1′-sulfanediyl-di-β-D-galactopyranoside] |  |  | 1 nM | 79 nM |  |
| OC[C@H]1O[C@@H](O[C@H]2[C@H](O)[C@@H](O)C(O)O[C@@H]2CO)[C@H](O)[C@@H](O)[C@H]1O (some centres unmarked) [lactose] |  |  |  |  | 500 to 1000 µM |
| OCC1O[C@@H](SC2O[C@H](CO)C(O)C(n3cc(-c4ccc(F)c(F)c4)nn3)[C@H]2O)C(O)[C@@H](n2cc(-c3ccc(F)c(F)c3)nn2)[C@H]1O (stereo partly drawn) [Example 3a, 3,3′-dideoxy-3,3′-di-[4-(3,4-difluorophenyl)-1H-1,2,3-triazol-1-yl]-1,1′-sulfanediyl-di-β-D-galactopyranoside] |  |  | 3 nM | 78 nM |  |
| O=C(NC1C(O)C(CO)OC(SC2OC(CO)C(O)C(n3cc(-c4cccc(F)c4)nn3)C2O)C1O)c1c2ccccc2cc2ccccc12 [Example S20a, 3-(9-anthracenecarboxamide)-3,3′-Dideoxy-3-[4-(3-fluorophenyl)-1H-1,2,3-triazol-1-yl]-1,1′-sulfanediyl-di-β-D-galactopyranoside] | 64 nM | 380 nM |  |  |  |
| O=C(NC1C(O)C(CO)OC(SC2OC(CO)C(O)C(n3cc(-c4cccc(F)c4)nn3)C2O)C1O)c1ccc2cc3ccccc3cc2c1 [Example S20b, 3-(2-anthracenecarboxamide)-3,3′-Dideoxy-3-[4-(3-fluorophenyl)-1H-1,2,3-triazol-1-yl]-1,1′-sulfanediyl-di-β-D-galactopyranoside] | 140 nM | 490 nM |  |  |  |
